# Legend:
# Assay type in all cases: in vivo
# [1] = tested on: wheat (Triticum aestivum); assay: Test C postemergence, visual plant response rating
# Outline: (§1)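 Seeds sown in a loam–sand blend got a directed preemergence soil spray; postemergence plants (2–10 cm, one- to two-leaf stage) were sprayed with compound in a non-phytotoxic solvent plus surfactant. Injury was scored visually against untreated controls after about 10 d in a greenhouse on a 0–100 scale (100 = complete control).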
# [2] = tested on: pigweed (Amaranthus retroflexus); assay: Test C postemergence, visual plant response rating
# Outline: as §1
# [3] = tested on: foxtail, giant (giant foxtail, Setaria faberi); assay: Test C postemergence, visual plant response rating
# Outline: as §1
# [4] = tested on: barnyardgrass (Echinochloa crus-galli); assay: Test C postemergence, visual plant response rating
# Outline: as §1
# [5] = tested on: blackgrass (Alopecurus myosuroides); assay: Test C postemergence, visual plant response rating
# Outline: as §1
# [6] = tested on: galium (catchweed bedstraw, Galium aparine); assay: Test C postemergence, visual plant response rating
# Outline: as §1
# [7] = tested on: kochia (Bassia scoparia); assay: Test C postemergence, visual plant response rating
# Outline: as §1
# [8] = tested on: ragweed (common ragweed, Ambrosia artemisiifolia); assay: Test C postemergence, visual plant response rating
# Outline: as §1
# [9] = tested on: Italian ryegrass (Lolium mutiflorum); assay: Test C postemergence, visual plant response rating
# Outline: as §1
# [10] = tested on: corn (Zea mays); assay: Test C postemergence, visual plant response rating
# Outline: as §1
# [11] = tested on: pigweed (Amaranthus retroflexus); assay: Test C preemergence, visual plant response rating
# Outline: as §1
# [12] = tested on: foxtail, giant (giant foxtail, Setaria faberi); assay: Test C preemergence, visual plant response rating
# Outline: as §1
# [13] = tested on: barnyardgrass (Echinochloa crus-galli); assay: Test C preemergence, visual plant response rating
# Outline: as §1
# [14] = tested on: kochia (Bassia scoparia); assay: Test C preemergence, visual plant response rating
# Outline: as §1
# [15] = tested on: ragweed (common ragweed, Ambrosia artemisiifolia); assay: Test C preemergence, visual plant response rating
# Outline: as §1
# [16] = tested on: Italian ryegrass (Lolium mutiflorum); assay: Test C preemergence, visual plant response rating
# Outline: as §1
# [17] = tested on: sedge umbrella (small-flower umbrella sedge, Cyperus difformis); assay: Test D flooded paddy test, visual plant response rating; settings: 250 g ai/ha, scale 0 to 100 (0 no effect, 100 complete control), 13 to 15 d
# Outline: (§2)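 Plants grown to the 2-leaf stage; pots flooded to 3 cm above soil and compound applied directly into paddy water, depth held throughout. Kept in greenhouse 13 to 15 d, then rated visually against untreated controls on a 0–100 scale (0 no effect, 100 complete control).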
# [18] = tested on: rice (Oryza sativa); assay: as above; settings: 250 g ai/ha, scale 0 to 100 (0 no effect, 100 complete control), 13 to 15 d
# Outline: as §2
# [19] = tested on: barnyardgrass (Echinochloa crus-galli); assay: as above; settings: 250 g ai/ha, scale 0 to 100 (0 no effect, 100 complete control), 13 to 15 d
# Outline: as §2
# [20] = tested on: duck salad (Heteranthera limosa); assay: as above; settings: 250 g ai/ha, scale 0 to 100 (0 no effect, 100 complete control), 13 to 15 d
# Outline: as §2
# [21] = Test C, postemergence, 125 g ai/ha
# [22] = Test C, 31 g ai/ha, 0 is no effect, 100 is complete control
# [23] = Test C, 125 g ai/ha, 0 is no effect, 100 is complete control
SMILES,"Wheat plant response rating (0 to 100 scale) ([1]; Postemergence, 31 g ai/ha)","Wheat plant response rating (0 to 100 scale) [1, 21]","Pigweed plant response rating (0 to 100 scale) ([2]; Postemergence, 31 g ai/ha)","Pigweed plant response rating (0 to 100 scale) [2, 21]","Foxtail, Giant plant response rating (0 to 100 scale) ([3]; Postemergence, 31 g ai/ha)","Foxtail, Giant plant response rating (0 to 100 scale) [3, 21]","Barnyardgrass plant response rating (0 to 100 scale) ([4]; Postemergence, 31 g ai/ha)","Barnyardgrass plant response rating (0 to 100 scale) [4, 21]","Blackgrass plant response rating (0 to 100 scale) ([5]; Postemergence, 31 g ai/ha)","Blackgrass plant response rating (0 to 100 scale) [5, 21]","Galium plant response rating (0 to 100 scale) ([6]; Postemergence, 31 g ai/ha)","Galium plant response rating (0 to 100 scale) [6, 21]","Kochia plant response rating (0 to 100 scale) ([7]; Postemergence, 31 g ai/ha)","Kochia plant response rating (0 to 100 scale) [7, 21]","Ragweed plant response rating (0 to 100 scale) ([8]; Postemergence, 31 g ai/ha)","Ragweed plant response rating (0 to 100 scale) [8, 21]","Ryegrass, Italian plant response rating (0 to 100 scale) ([9]; Postemergence, 31 g ai/ha)","Ryegrass, Italian plant response rating (0 to 100 scale) [9, 21]","Corn plant response rating (0 to 100 scale) ([10]; Postemergence, 31 g ai/ha)","Corn plant response rating (0 to 100 scale) [10, 21]",also measured
CON=C(c1cccc(OCC(F)(F)F)c1)c1c(O)c(C)nn(C)c1=O [Compound 198],0,0,0,10,20,70,20,80,0,40,0,20,0,0,0,0,0,60,0,20,"Pigweed plant response rating (0 to 100 scale) [11, 22]: 0; Pigweed plant response rating (0 to 100 scale) [11, 23]: 0; Foxtail, Giant plant response rating (0 to 100 scale) [12, 22]: 0; Foxtail, Giant plant response rating (0 to 100 scale) [12, 23]: 70; Barnyardgrass plant response rating (0 to 100 scale) [13, 22]: 0; Barnyardgrass plant response rating (0 to 100 scale) [13, 23]: 40; Kochia plant response rating (0 to 100 scale) [14, 22]: 0; Kochia plant response rating (0 to 100 scale) [14, 23]: 0; Ragweed plant response rating (0 to 100 scale) [15, 22]: 0; Ragweed plant response rating (0 to 100 scale) [15, 23]: 0; Ryegrass, Italian plant response rating (0 to 100 scale) [16, 22]: 0; Ryegrass, Italian plant response rating (0 to 100 scale) [16, 23]: 70; Plant response rating, Sedge, Umbrella (Flood) [17]: 0; Plant response rating, Rice (Flood) [18]: 0; Plant response rating, Barnyardgrass (Flood) [19]: 0; Plant response rating, Ducksalad (Flood) [20]: 0"
CON=C(c1cc(Cl)cc(OC)c1)c1c(O)c(C)nn(C)c1=O [Compound 175],0,0,50,70,50,80,50,70,20,30,90,100,80,100,80,90,50,70,10,20,"Pigweed plant response rating (0 to 100 scale) ([11]; 125 g ai/ha): 30; Pigweed plant response rating (0 to 100 scale) [11, 22]: 0; Foxtail, Giant plant response rating (0 to 100 scale) ([12]; 125 g ai/ha): 70; Foxtail, Giant plant response rating (0 to 100 scale) [12, 22]: 30; Barnyardgrass plant response rating (0 to 100 scale) ([13]; 125 g ai/ha): 70; Barnyardgrass plant response rating (0 to 100 scale) [13, 22]: 50; Kochia plant response rating (0 to 100 scale) ([14]; 125 g ai/ha): 80; Kochia plant response rating (0 to 100 scale) [14, 22]: 40; Ragweed plant response rating (0 to 100 scale) ([15]; 125 g ai/ha): 100; Ragweed plant response rating (0 to 100 scale) [15, 22]: 40; Ryegrass, Italian plant response rating (0 to 100 scale) ([16]; 125 g ai/ha): 50; Ryegrass, Italian plant response rating (0 to 100 scale) [16, 22]: 30; Plant response rating, Sedge, Umbrella (Flood) [17]: 0; Plant response rating, Rice (Flood) [18]: 0; Plant response rating, Barnyardgrass (Flood) [19]: 0; Plant response rating, Ducksalad (Flood) [20]: 0"
CO/N=C(/c1cccc(Br)c1)c1c(O)c(C)nn(C)c1=O [Compound 234],0,0,10,30,10,30,10,30,10,0,80,90,30,70,40,80,50,70,0,0,"Pigweed plant response rating (0 to 100 scale) [11, 22]: 0; Pigweed plant response rating (0 to 100 scale) [11, 23]: 0; Foxtail, Giant plant response rating (0 to 100 scale) [12, 22]: 0; Foxtail, Giant plant response rating (0 to 100 scale) [12, 23]: 20; Barnyardgrass plant response rating (0 to 100 scale) [13, 22]: 0; Barnyardgrass plant response rating (0 to 100 scale) [13, 23]: 0; Kochia plant response rating (0 to 100 scale) [14, 22]: 0; Kochia plant response rating (0 to 100 scale) [14, 23]: 0; Ragweed plant response rating (0 to 100 scale) [15, 22]: 10; Ragweed plant response rating (0 to 100 scale) [15, 23]: 40; Ryegrass, Italian plant response rating (0 to 100 scale) [16, 22]: 40; Ryegrass, Italian plant response rating (0 to 100 scale) [16, 23]: 90; Plant response rating, Sedge, Umbrella (Flood) [17]: 0; Plant response rating, Rice (Flood) [18]: 0; Plant response rating, Barnyardgrass (Flood) [19]: 0; Plant response rating, Ducksalad (Flood) [20]: 0"

# Source: patent US20210045385A1, “PYRIDAZINONE-SUBSTITUTED KETOXIMES AS HERBICIDES” (FMC Corporation, priority 2018, published 2021)
